Where two headings read alike, the source gives them in different places.
Assays:
α9α10^α9TM2TM3loop = α9α10^α9TM2TM3loop (Rattus norvegicus, UniProt P43144+Q9JLB5, A292S/P291A/S288I/S294N); assay type: cell-based; details: for ACh response, % of response at […] Ca^2+: Vhold -90
α9α10E287Q = α9α10E287Q (Rattus norvegicus, UniProt P43144+Q9JLB5, E287Q); assay type: cell-based
α9α10^α9Nt–TM1TM2loop = α9α10^α9Nt–TM1TM2loop (Rattus norvegicus, UniProt P43144+Q9JLB5, A103S/A128E/A130V/A141L/A146S/A160Y/A165S/A191G/A194S/A236S/A237S/A238F/A257S/A39E/A49E/A97Q/C241V/D100R/D263A/E60Q/E85T/F249L/G169N/G178N/G188L/G99D/H138Y/H177Y/H180N/H259Y/H92T/I67K/K96D/L182V/L205H/L214I/L245I/L252F/L78A/N199D/N40D/P126S/P127S/P186N/P95R/Q125E/Q53A/R109D/R143T/R151K/R155V/R167Q/R185F/R187A/R203E/R210V/R211K/R212N/R233K/R35S/S129P/S131N/S159T/S192D/T124D/T189D/T215S/T42S/T54V/T87H/V136L/V142I/V184I/V197I/V240I/V75I); assay type: cell-based; details: 40 µM ACh; for ACh response, % of response at […] Ca^2+: Vhold -90
α9α10E201Q = α9α10E201Q (Rattus norvegicus, UniProt P43144+Q9JLB5, E201Q); assay type: cell-based
α9α10 nAChR = α9α10 nAChR (Rattus norvegicus, UniProt P43144+Q9JLB5); assay type: cell-based; details: 10 µM ACh; for ACh response, % of responses at […] Ca^2+: Vhold -90
α9α10^α9Nt–TM2TM3loop = α9α10^α9Nt–TM2TM3loop (Rattus norvegicus, UniProt P43144+Q9JLB5); assay type: cell-based; details: for ACh response, % of response at […] Ca^2+: Vhold -90
α9α10^α9Nt = α9α10^α9Nt (Rattus norvegicus, UniProt P43144+Q9JLB5, A103S/A128E/A130V/A141L/A146S/A160Y/A165S/A191G/A194S/A39E/A49E/A97Q/D100R/E60Q/E85T/G169N/G178N/G188L/G99D/H138Y/H177Y/H180N/H92T/I67K/K96D/L182V/L205H/L214I/L78A/N199D/N40D/P126S/P127S/P186N/P95R/Q125E/Q53A/R109D/R143T/R151K/R155V/R167Q/R185F/R187A/R203E/R210V/R211K/R212N/R233K/R35S/S129P/S131N/S159T/S192D/T124D/T189D/T215S/T42S/T54V/T87H/V136L/V142I/V184I/V197I/V75I); assay type: cell-based; details: 10 µM ACh; for ACh response, % of response at […] Ca^2+: Vhold -90
α9α10E71Q = α9α10E71Q (Rattus norvegicus, UniProt P43144+Q9JLB5, E71Q); assay type: cell-based
homomeric α9 nAChR = details: cited from earlier work
α9α10^α9Nt–TM2 = α9α10^α9Nt–TM2 (Rattus norvegicus, UniProt P43144+Q9JLB5, A103S/A128E/A130V/A141L/A146S/A160Y/A165S/A191G/A194S/A236S/A237S/A238F/A257S/A39E/A49E/A97Q/C241V/D100R/D263A/E60Q/E85T/F249L/G169N/G178N/G188L/G99D/H138Y/H177Y/H180N/H259Y/H92T/I284M/I67K/K96D/L182V/L205H/L214I/L245I/L252F/L278M/L285V/L78A/N199D/N40D/P126S/P127S/P186N/P95R/Q125E/Q53A/R109D/R143T/R151K/R155V/R167Q/R185F/R187A/R203E/R210V/R211K/R212N/R233K/R35S/S129P/S131N/S159T/S192D/T124D/T189D/T215S/T42S/T54V/T87H/V136L/V142I/V184I/V197I/V240I/V274I/V75I); assay type: cell-based; details: 30 µM ACh; for ACh response, % of response at […] Ca^2+: Vhold -90
α9α10^α9extra = α9α10^α9extra (Rattus norvegicus, UniProt P43144+Q9JLB5, A264D/A308T/A312F/A328P/E329N/F253L/F325Y/H335A/I246L/I275V/I304M/I310V/I323L/L250F/L309M/M279L/M285I/M319L/R331H/S258A/V286L/V320I/Y260H); assay type: cell-based; details: for ACh response, % of response at […] Ca^2+: Vhold -90
[1] = read-out: Ca^2+ IC50, block of responses to 100 µM ACh

ACh response, % of response at […] Ca^2+ (α9α10^α9TM2TM3loop; 3 mM Ca^2+, 50 µM ACh): 71.3 ± 5.2%
ACh response, % of response at […] Ca^2+ (α9α10^α9TM2TM3loop; 3 mM Ca^2+, sub-EC50 25 µM ACh): 46.3 ± 20.9%
3 / 0 Ca^2+ ratio of response (α9α10^α9TM2TM3loop; +40 mV, 50 µM ACh): 0.74 ± 0.14
3 / 0 Ca^2+ ratio of response (α9α10^α9TM2TM3loop; -90 mV, 50 µM ACh): 0.14 ± 0.02
ACh response, % of response at […] Ca^2+ (α9α10^α9TM2TM3loop; zero Ca^2+, 50 µM ACh): 401.0 ± 103.4%
ACh response, % of response at […] Ca^2+ (α9α10^α9TM2TM3loop; zero Ca^2+, sub-EC50 25 µM ACh): 668.7 ± 340.2%
modulation of ACh-evoked responses by extracellular Ca^2+ (in words) (α9α10E287Q; 20 µM ACh): not potentiated by Ca^2+
ACh response, % of response at […] Ca^2+ (α9α10E287Q; 3 mM Ca^2+, 20 µM ACh): 67.6 ± 5.6%
3 / 0 Ca^2+ ratio of response (α9α10E287Q; +40 mV, 20 µM ACh): 0.48 ± 0.04
3 / 0 Ca^2+ ratio of response (α9α10E287Q; -90 mV, 20 µM ACh): 0.26 ± 0.02
IC50 (α9α10E287Q; read-out: Ca^2+ IC50, block of responses to 20 µM ACh): 300 ± 100 µM
ACh response, % of response at […] Ca^2+ (α9α10E287Q; zero Ca^2+, 20 µM ACh): 320.7 ± 97.4%
ACh response, % of response at […] Ca^2+ (α9α10^α9Nt–TM1TM2loop; 0.2 mM Ca^2+): 358.3 ± 32.4%
ACh response, % of response at […] Ca^2+ (α9α10^α9Nt–TM1TM2loop; 3 mM Ca^2+): 73.5 ± 9.3%
0.2 / 0 Ca^2+ ratio of response amplitudes (α9α10^α9Nt–TM1TM2loop; +40 mV): 5.9 ± 2.6
0.2 / 0 Ca^2+ ratio of response amplitudes (α9α10^α9Nt–TM1TM2loop; -90 mV): 5.4 ± 2.4
ACh response, % of response at […] Ca^2+ (α9α10^α9Nt–TM1TM2loop; nominally zero Ca^2+): 95.2 ± 18.8%
modulation of ACh-evoked responses by extracellular Ca^2+ (in words) (α9α10E201Q; 100 µM ACh): not potentiated by Ca^2+
ACh response, % of response at […] Ca^2+ (α9α10E201Q; 3 mM Ca^2+, 100 µM ACh): 74.3 ± 11.2%
3 / 0 Ca^2+ ratio of response (α9α10E201Q; +40 mV, 100 µM ACh): 0.53 ± 0.12
3 / 0 Ca^2+ ratio of response (α9α10E201Q; -90 mV, 100 µM ACh): 0.18 ± 0.05
IC50 (α9α10E201Q; [1]): 900 ± 300 µM
ACh response, % of response at […] Ca^2+ (α9α10E201Q; zero Ca^2+, 100 µM ACh): 201.6 ± 39.7%
ACh response, % of responses at […] Ca^2+ (α9α10 nAChR; 0.5 mM Ca^2+ (maximum)): 142.98 ± 10.12%
ACh response, % of responses at […] Ca^2+ (α9α10 nAChR; nominally zero Ca^2+): 16.79 ± 6.47%
ACh response, % of response at […] Ca^2+ (α9α10^α9Nt–TM2TM3loop; 3 mM Ca^2+, 5 µM ACh): 108.1 ± 10.7%
3 / 0 Ca^2+ ratio of response (α9α10^α9Nt–TM2TM3loop; +40 mV, 5 µM ACh): 1.2 ± 0.3
3 / 0 Ca^2+ ratio of response (α9α10^α9Nt–TM2TM3loop; -90 mV, 5 µM ACh): 0.20 ± 0.03
IC50 (α9α10^α9Nt–TM2TM3loop; read-out: Ca^2+ IC50, block of responses to 5 µM ACh, -90 mV): 500 ± 100 µM
ACh response, % of response at […] Ca^2+ (α9α10^α9Nt–TM2TM3loop; zero Ca^2+, 5 µM ACh): 611.3 ± 91.2%
ACh response, % of response at […] Ca^2+ (α9α10^α9Nt; 0.2 mM Ca^2+): 225.8 ± 18.9%
ACh response, % of response at […] Ca^2+ (α9α10^α9Nt; 3 mM Ca^2+): 64.9 ± 5.9%
0.2 / 0 Ca^2+ ratio of response amplitudes (α9α10^α9Nt; +40 mV): 2.5 ± 0.3
0.2 / 0 Ca^2+ ratio of response amplitudes (α9α10^α9Nt; -90 mV): 2.1 ± 0.4
ACh response, % of response at […] Ca^2+ (α9α10^α9Nt; nominally zero Ca^2+): 115.2 ± 27.3%
modulation of ACh-evoked responses by extracellular Ca^2+ (in words) (α9α10E71Q; 100 µM ACh): not potentiated by Ca^2+
ACh response, % of response at […] Ca^2+ (α9α10E71Q; 3 mM Ca^2+, 100 µM ACh): 64.8 ± 2.7%
3 / 0 Ca^2+ ratio of response (α9α10E71Q; +40 mV, 100 µM ACh): 1.05 ± 0.29
3 / 0 Ca^2+ ratio of response (α9α10E71Q; -90 mV, 100 µM ACh): 0.25 ± 0.05
IC50 (α9α10E71Q; [1]): 800 ± 100 µM
ACh response, % of response at […] Ca^2+ (α9α10E71Q; zero Ca^2+, 100 µM ACh): 211.0 ± 35.6%
ACh response, % of response at […] Ca^2+ (α9α10^α9Nt–TM2; 0.2 mM Ca^2+): 322.0 ± 40.0%
ACh response, % of response at […] Ca^2+ (α9α10^α9Nt–TM2; 3 mM Ca^2+): 69.5 ± 7.6%
0.2 / 0 Ca^2+ ratio of response amplitudes (α9α10^α9Nt–TM2; +40 mV): 2.8 ± 0.4
0.2 / 0 Ca^2+ ratio of response amplitudes (α9α10^α9Nt–TM2; -90 mV): 4.1 ± 0.2
ACh response, % of response at […] Ca^2+ (α9α10^α9Nt–TM2; nominally zero Ca^2+): 132.4 ± 27.5%
ACh response, % of response at […] Ca^2+ (α9α10^α9extra; 3 mM Ca^2+, 10 µM ACh): 72.3 ± 5.3%
3 / 0 Ca^2+ ratio of response (α9α10^α9extra; +40 mV, 10 µM ACh): 0.60 ± 0.08
3 / 0 Ca^2+ ratio of response (α9α10^α9extra; -90 mV, 10 µM ACh): 0.20 ± 0.05
IC50 (α9α10^α9extra; read-out: Ca^2+ IC50, block of responses to 10 µM ACh, -90 mV): 700 ± 200 µM
ACh response, % of response at […] Ca^2+ (α9α10^α9extra; zero Ca^2+, 10 µM ACh): 217.3 ± 6.3%
Structure (SMILES): [Ca+2] [Ca^2+, Calcium]
modulation of ACh-evoked responses by extracellular Ca^2+ (in words) (α9α10^α9TM2TM3loop; 50 µM ACh): not potentiated by extracellular Ca^2+, but instead blocked by this ion
modulation of ACh-evoked responses by extracellular Ca^2+ (in words) (α9α10^α9Nt–TM1TM2loop): potentiated by Ca^2+ up to 0.2 mM and blocked by higher concentrations
modulation of ACh-evoked responses by extracellular Ca^2+ (in words) (α9α10 nAChR): potentiated by sub-millimolar Ca^2+ concentrations
modulation of ACh-evoked responses by extracellular Ca^2+ (in words) (α9α10^α9Nt–TM2TM3loop; 5 µM ACh): only blocked by increasing Ca^2+ concentrations
modulation of ACh-evoked responses by extracellular Ca^2+ (in words) (α9α10^α9Nt): potentiated by Ca^2+ up to 0.2 mM and blocked by higher concentrations
ACh response amplitude normalized to 0 mM Ca^2+ (Imax) (homomeric α9 nAChR; […] Ca^2+, 100 µM ACh, Vhold -70, homomeric α9): 5.63 ± 0.58%
modulation of ACh-evoked responses by extracellular Ca^2+ (in words) (homomeric α9 nAChR; rat α9 nAChRs): only blocked by this ion
IC50 (homomeric α9 nAChR; read-out: Ca^2+ IC50 (50% of response block), homomeric α9, -70 mV): 100 ± 10 µM
modulation of ACh-evoked responses by extracellular Ca^2+ (in words) (α9α10^α9Nt–TM2): potentiated by Ca^2+ up to 0.2 mM and blocked by higher concentrations
modulation of ACh-evoked responses by extracellular Ca^2+ (in words) (α9α10^α9extra; 10 µM ACh): not potentiated by Ca^2+, and only blocked by increasing Ca^2+ concentrations

From PMC11335262 (Cellular and Molecular Life Sciences: CMLS, 2024)
